In patent US8778966B2, “Quinolinone derivatives as PARP and tank inhibitors” (Janssen Pharmaceutica, NV, priority 2007, dated 2014):

Experiments:
[1] = tested on: PC3 cells; assay: EB1 Comet (microtubule disruption) assay; format: cell-based, human; details: 1 hour treatment; for minimal effective concentration: Homo sapiens, PC-3, 1 h, read-out: EB1 pLAC (converted)
How it was run: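 Readout is loss of Eb1 plus-end foci, scored by immunofluorescence microscopy, in PC3 cells after 1 h compound treatment at 37 °C with 0.6% final DMSO. LAC is defined as the lowest concentration leaving at least 50% of cells without Eb1 foci.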

[2] = molecular target: T1, Human PARP-1 enzyme (Homo sapiens, UniProt P09874); assay: In vitro Scintillation Proximity Assay (SPA) for PARP-1 inhibitory activity; format: biochemical; details: read-out: in vitro SPA assay PARP-1 pIC50 (converted)
T1 construct: purchased Trevigen
How it was run: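 SPA assay: nicked-DNA-activated PARP-1 (0.1–0.2 μg/ml) ADP-ribosylates biotinylated histones (2 μg/ml) using [3H]-NAD+, 20 min at RT in Tris pH 8/DTT/MgCl2, stopped with 2 mM NAD+. Blank-subtracted cpm expressed as % control; IC50 by linear interpolation, reported as pIC50 (10−5 to 3×10−9 M tested).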

T1 sequence (P09874 whole entry): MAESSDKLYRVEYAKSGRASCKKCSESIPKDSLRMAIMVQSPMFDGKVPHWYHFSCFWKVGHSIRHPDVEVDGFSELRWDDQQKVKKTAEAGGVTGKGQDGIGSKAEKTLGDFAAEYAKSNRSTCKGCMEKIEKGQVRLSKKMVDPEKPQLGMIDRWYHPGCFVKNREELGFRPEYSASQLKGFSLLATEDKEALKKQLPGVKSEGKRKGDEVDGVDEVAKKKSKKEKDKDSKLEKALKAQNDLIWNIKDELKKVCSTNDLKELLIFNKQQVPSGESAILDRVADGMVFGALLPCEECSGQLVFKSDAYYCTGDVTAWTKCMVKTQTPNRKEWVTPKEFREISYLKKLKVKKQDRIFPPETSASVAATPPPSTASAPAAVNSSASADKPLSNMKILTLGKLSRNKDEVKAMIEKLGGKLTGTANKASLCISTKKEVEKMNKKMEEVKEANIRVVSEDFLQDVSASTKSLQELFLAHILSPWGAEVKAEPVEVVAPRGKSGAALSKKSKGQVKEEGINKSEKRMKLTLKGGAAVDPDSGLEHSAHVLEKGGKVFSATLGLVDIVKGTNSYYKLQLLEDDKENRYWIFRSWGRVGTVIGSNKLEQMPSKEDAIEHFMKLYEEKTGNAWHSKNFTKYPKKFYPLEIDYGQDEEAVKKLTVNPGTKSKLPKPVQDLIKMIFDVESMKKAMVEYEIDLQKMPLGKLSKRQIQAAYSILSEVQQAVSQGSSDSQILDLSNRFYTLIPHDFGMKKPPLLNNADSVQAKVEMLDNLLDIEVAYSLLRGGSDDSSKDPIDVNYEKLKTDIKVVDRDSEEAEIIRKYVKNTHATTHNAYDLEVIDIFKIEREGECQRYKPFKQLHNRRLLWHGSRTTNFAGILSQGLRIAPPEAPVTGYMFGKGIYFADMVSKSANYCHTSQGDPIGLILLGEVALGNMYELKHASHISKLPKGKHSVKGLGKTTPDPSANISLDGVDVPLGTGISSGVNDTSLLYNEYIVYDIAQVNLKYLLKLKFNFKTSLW

SMILES | IC50 [2] [nM] | minimal effective concentration [1] [µM] | EB1 pLAC [1]
CCc1cc2ccc(C(C)(C#N)Cc3cccc(Br)c3C)cc2[nH]c1=O (stereo not shown) [Compound 81] | 1260 | 0.316 | 
CCc1cc2ccc(C(C)(C#N)Cc3ccc(C)c(F)c3F)cc2[nH]c1=O (stereo not shown) [Compound 83] | 631 | 1 | 
CCc1cc2ccc(C(C)(C#N)Cc3c(C)cccc3C)cc2[nH]c1=O (stereo not shown) [Compound 84] | 1260 | 1 | 
CCc1cc2ccc(C(C)(C#N)Cc3nc4ccccc4o3)cc2[nH]c1=O (stereo not shown) [Compound 85] | 126 | 0.316 | 
CCc1cc2ccc(C(C)(C#N)Cc3csc(C)n3)cc2[nH]c1=O (stereo not shown) [Compound 86] | 501 | 3.16 | 
CCc1cc2ccc(C(C)(C#N)Cc3cc(Cl)cc4c3OCOC4)cc2[nH]c1=O (stereo not shown) [Compound 90] | 316 | 1 | 
CCc1cc2ccc(C(C)(C#N)Cc3cc4c(cc3Cl)OCO4)cc2[nH]c1=O (stereo not shown) [Compound 91] | 1260 | 0.1 | 
CCc1cc2ccc(C(C)(C#N)Cc3cc(Cl)cc4c3OCOC4)cc2[nH]c1=O (stereo not shown) [Compound 92] | 251 |  | 6
CCc1cc2ccc(C(C)(C#N)Cc3ccccc3C#N)cc2[nH]c1=O (stereo not shown) [Compound 101] | 50.1 | 1 | 
Cc1cc2ccc(C(C)(C#N)Cc3cc4ccccc4[nH]3)cc2[nH]c1=O (stereo not shown) [Compound 234] | 251 | > 10 | 
CCc1cc2ccc(C(C)(C#N)CCOc3ccccc3F)cc2[nH]c1=O (stereo not shown) [Compound 278] | 100 | 1 | 
CCc1cc2ccc(C(C)(C#N)CCOc3ccc4c(c3)OCO4)cc2[nH]c1=O (stereo not shown) [Compound 279] | 79.4 | 1 | 
CCc1cc2ccc(C(C)(C#N)Cc3cc(OC)cc(OC)c3)cc2[nH]c1=O (stereo not shown) [Compound 332] | 79.4 | 0.316 | 

Now from value to compound, other results behind:

IC50 [2] [nM] | SMILES | minimal effective concentration [1] [µM] | EB1 pLAC [1]
1000 | CCc1cc2ccc(C(C)(C#N)Cc3cc(Cl)ccc3OC)cc2[nH]c1=O (stereo not shown) [Compound 80] | 0.1 | 
3980 | CCc1cc2ccc(C(C)(C#N)Cc3ccc(Cl)c(C(F)(F)F)c3)cc2[nH]c1=O (stereo not shown) [Compound 82] | 1 | 
79.4 | CCc1cc2ccc(C(C)(C#N)Cc3ccc4nccnc4c3)cc2[nH]c1=O (stereo not shown) [Compound 87] | 3.16 | 
1000 | CCc1cc2ccc(C(C)(C#N)Cc3cc(Cl)ccc3Cl)cc2[nH]c1=O (stereo not shown) [Compound 99] | 0.1 | 
1580 | CCc1cc2ccc(C(C)(C#N)Cc3ccccc3OC(F)(F)F)cc2[nH]c1=O (stereo not shown) [Compound 102] | 3.16 | 
1260 | CCc1cc2ccc(C(C)(C#N)Cc3ccccc3C(F)(F)F)cc2[nH]c1=O (stereo not shown) [Compound 103] | 0.316 | 
79.4 | CCc1cc2ccc(C(C)(C#N)Cc3ccc(F)c(C#N)c3)cc2[nH]c1=O (stereo not shown) [Compound 267] | 0.1 | 
